Read-outs that look alike come from different tables or passages of the source.
Assays:
[1] = system: EL4-GFP-Luc lymphoma/lymphoblastic cells; experiment: EL4-GFP-Luc lymphoblastic leukemia mouse model, long-term oral LP-533401 treatment (Example 9); type: in vivo, mice
Procedure: 8- to 10-week-old immunocompetent male mice were inoculated with tumor cells by tail vein injection. The EL4 cell line was established from a lymphoma-induced tumor in a C57BL mouse by 9,10-dimethyl-1,2-benzanthacene. An EL4 cell line transduced with green fluorescence protein and luciferase, EL4-GFP-Luc, was injected via the lateral tail vein of the B6(Cg)-Tyrc-2J mice (500,000 cells per mouse). The EL4-GFP-Luc fusion gene was used to allow cell trafficking and tumor progression to be assessed by an in vivo imaging system.
Leukemia engraftment and progression was monitored using the Xenogen IVIS-200 System (IVIS® imaging system, Xenogen Corporation), an in vivo imaging technology platform that allows non-invasive visualization, and tracking of cellular and genetic activity within a living organism. The system consists of a CCD camera mounted on a light-tight specimen chamber, a camera controller, a cryogenic cooler, a fluorescence light source and a computer system for data acquisition and analysis. The system is capable of imaging bioilluminescence and fluorescence in living animals.
In this study, since luminescence was being detected, luciferin as a substrate of luciferase was administered to the mice. The mice were monitored using the in vivo imaging system twice per week. Mice were anaesthetized using isoflurane, and then were injected intraperitoneally with luciferin (0.15 mg per g body weight) 10 minutes before the detection point. Mice were imaged using the in vivo system, setting the exposure time to 1 minute. Bioilluminescence intensity was recorded and counted.
Blood was collected by cardiac puncture in EDTA (CBCs and blood smears) or non-EDTA (serum) coated tubes. For serum preparation, blood was kept at room temperature for 15 minutes and centrifuged at 15,700 g for 10 min at 4° C. Serum osteocalcin was measured using the Osteocalcin IRMA kit (Immutopics).
Time-to-event analysis was used to assess two endpoints of interest, death and paralysis. The day which mice were inoculated with tumor cells was considered Day 1. Animals were followed up to 62 days. […] Kaplan-Meier curves were generated to illustrate time to death and paralysis, stratified by group status. Statistical significance of the between-group difference in the median time-to-endpoint was assessed by the log-rank test. Statistical analyses were performed using the EXCEL-XLSTAT and SAS softwares0. A P value less than 0.05 was considered statistically significant.
Mice injected with the EL-4 cell line, EL4-GFP-Luc, were used as described in Example 2. The imaging system describe in Example 2 was used.
Mice were treated orally with LP-533401 (25 or 200 mg per kg of body weight per day) or vehicle. Treatments started 15 days before malignant cell injections in all sets of experiments, and continued for the indicated periods of time. LP-533401 was dissolved in polyethylene glycol (PEG) and 5% dextrose or 2.5% glucose (Sigma), and given daily by oral gavage. Mice treated with vehicle were administered, in the same way as LP533401, a solution of PEG and 5% dextrose or 2.5% glucose, daily, by oral gavage.
The mice were divided into four groups of mice: • Mice with no leukemia treated with a vehicle, i.e., non-leukemic-vehicle-treated (“WT”); • Mice with no leukemia treated with LP533401, i.e., non-leukemic-LP-533401-treated (“NL-LP”); • Mice with leukemia treated with a vehicle, i.e., leukemic-vehicle-treated (“Leuk-veh”); and • Mice with leukemia treated with LP-533401, leukemic-LP533410-treated (“Leuk-LP”).
Treatment of the non-leukemic mice with the vehicle or LP-533401 lasted a total of 35 days and treatment of the leukemic animals with a vehicle or LP-533401 continued until the day mice were sacrificed, which occurred at different time points, depending upon the presence of signs of illness. […]

EL4 cells = experiment: EL4 leukemia mouse model, all mice sacrificed at day 15 (Example 10); type: in vivo
Procedure: Mice were sacrificed at pre-determined time points as specified before or upon signs of illness. Each animal was weighed before blood was sampled, and visually examined for tumor development. Spleens were isolated and weighed. Spleens and tissue samples from liver were fixed in 10% neutral formalin solution for 48 hours. Osseous samples (thoracic spine, sternum, pelvis, and stifle joint) were decalcified in Decalcifier System I (Leica Microsystems, Inc.) for 48 h after fixation. All tissues were processed by routine methods and embedded in paraffin Sections of 4 or 5 μm were stained with hematoxylin and eosin (H&E) according to standard procedures. Luciferase intensity was measured by plating 4.5 million bone marrow cells into 6-well plates. Luciferin was added at a final concentration of 150 μg/mL and luciferase activity was measured at a luminometer. Mice were treated orally with LP-533401 (25 or 200 mg per kg of body weight per day) or vehicle. Treatments started 15 days before malignant cell injections in all sets of experiments, and continued for the indicated periods of time. LP-533401 was dissolved in polyethylene glycol (PEG) and 5% dextrose or 2.5% glucose (Sigma), and given daily by oral gavage. Mice treated with vehicle were administered, in the same way as LP533401, a solution of PEG and 5% dextrose or 2.5% glucose, daily, by oral gavage. The same mice and techniques used in Example 9 were used in this Example, except all of the mice were sacrificed at day 15 following EL4 cell injection

serotonin = settings: six consecutive doses, cited from earlier work
bone loss = settings: in vivo; cited from earlier work
[2] = among ten leukemic mice treated
[3] = leukemic mice (EL4), peripheral blood

Q: For `Nc1nc(OC(c2ccc(-c3cccc(F)c3)cc2)C(F)(F)F)cc(-c2ccc(C[C@H](N)C(=O)O)cc2)n1` (some centres unmarked) [LP-533401], which “number of treated leukemic mice that cleared their leukemia” value [1, 2] is on record?
A: Its value is 2.

Q: What about the “number of treated leukemic mice that never developed leukemia” value [1, 2] of the same compound?
A: The value was 2.

Q: What about the “number of treated leukemic mice that developed leukemia at a late stage and then recovered” value ([1]; among ten leukemic mice treated, day 28) of the same compound?
A: The value was 1.

Q: And the “animals that developed hind-limb paralysis” value ([1]; leukemic mice (EL4))?
A: The value was 38%.

Q: What about the reticulocyte numbers ([1]; leukemic mice (EL4)) of the same compound?
A: Its reticulocyte numbers is “prevented leukemia induced suppression of reticulocyte numbers”.

Q: And the “tumor burden by bioluminescence imaging / luciferase intensity” value ([1]; leukemic mice (EL4))?
A: Its value is “decreased tumor burden”.

Q: What about the “anemia (red blood cells, hemoglobin, hematocrit)” value [1, 3] of the same compound?
A: Its value is “ameliorated anemia”.

Q: What about the “leukemia-associated increase in WBCs” value [1, 3] of the same compound?
A: Its value is “diminished”.

Q: What about the “neutrophils, monocytes and lymphocytes” value [1, 3] of the same compound?
A: The value was “restored to normal numbers”.

Q: And the overall survival ([1]; mice with leukemia (EL4))?
A: The overall survival was “significantly longer overall survival”.

Q: What about the “leukemic infiltration in the marrow (histology)” value (EL4 cells; day 15) of the same compound?
A: Its value is “reduced leukemic infiltration”.

Q: What about the “leukemic mice with 20 to 40% blasts in the bone marrow” value (EL4 cells; day 15) of the same compound?
A: Its value is 40%.

Q: And the “leukemic mice with increased megakaryocyte number” value (EL4 cells; day 15)?
A: The value was 20%.

Q: And the “leukemic mice with less than 20% of blasts in the bone marrow” value (EL4 cells; day 15)?
A: Its value is 40%.

Q: What about the “leukemic mice with more than 80% blasts in the bone marrow” value (EL4 cells; day 15) of the same compound?
A: Its value is 20%.

Q: What about the “leukemia-induced changes in WBCs, monocytes, neutrophils and lymphocytes” value (EL4 cells; day 15, leukemic mice) of the same compound?
A: The value was “all prevented”.

Q: And the liver leukemic involvement (EL4 cells; day 15, leukemic mice)?
A: The liver leukemic involvement was “normal or only small size focal infiltrates”.

Q: What about the myeloid hyperplasia (EL4 cells; day 15, leukemic mice) of the same compound?
A: Its myeloid hyperplasia is “Mild myeloid hyperplasia”.

Q: What about the “prevalence of immature lymphoblastic cells in the blood compared to healthy controls” value (EL4 cells; day 15, leukemic mice) of the same compound?
A: Its value is “did not show an increase”.

Q: And the EL4 tumor burden (EL4 cells; day 15, whole body and bone marrow)?
A: Its EL4 tumor burden is “decreased in whole body and in the bone marrow”.

Q: And the “leukemia-caused decrease in bone volume, osteoblast numbers and bone formation rate” value (EL4 cells; day 15 after EL4 injection)?
A: Its value is “ameliorated”.

Q: What about the osteoclast numbers (EL4 cells; day 15 after EL4 injection) of the same compound?
A: Its osteoclast numbers is “Neither injection with EL4 cells nor treatment with LP-533401 affected osteoclast numbers”.

Q: And the “serotonin levels in the small intestine lowered” value (serotonin; 30 mg/kg twice per day)?
A: The value was 55%.

Q: What about the “serotonin levels in the small intestine lowered” value (serotonin; 90 mg/kg twice per day) of the same compound?
A: The value was 70%.

Q: What about the brain-derived serotonin (serotonin; 30 or 90 mg/kg twice per day) of the same compound?
A: Its brain-derived serotonin is “unchanged”.

Q: And the “effect against bone loss” value (bone loss)?
A: The value was “effective against bone loss”.

Source: patent US9717727B2, “Methods of treating and preventing leukemia and other cancers of the blood and bone” (The Trustees of Columbia University in the City of New York, priority 2011, dated 2017)
